This assay deals with Male Sprague-Dawley rats. In words: L5 spinal nerve ligation (SNL) tactile allodynia model, von Frey thresholds. The assay is classed as in vivo, rat. To be noted: 0.3, 1 or 3 mg/kg i.p., thresholds up to 60, 180 and 300 minutes after dosing, reversal of tactile allodynia, FIG. 1. The procedure:
Compound 1, (7-(2,6-dichlorophenyl)-5-fluoro-2,3-dihydrobenzofuran-2-yl)methanamine, was obtained from Wyeth compound repository and gabapentin was purchased from Toronto Research Chemicals (Ontario, Canada) and […]. Compound 1 was dissolved in sterile saline and gabapentin was suspended in 2% Tween 80 in 0.5% methylcellulose and sterile water. All compounds were administered intraperitoneally (i.p.).
Male Sprague-Dawley rats (125-150 g, Harlan; Indianapolis, Ind.) were individually housed on bedding. For all studies animals were maintained in climate-controlled rooms on a 12-hour light/dark cycle (lights on at 0630) with food and water available ad libitum. […]
Assessment of Tactile Allodynia (Tactile Sensitivity): Tactile thresholds were assessed using a series of calibrated von Frey monofilaments (Stoelting; Wood Dale, Ill.). The threshold that produced a 50% likelihood of a withdrawal was determined using the up-down method, as previously described (Chaplan et al., 1994).
Animals were placed in elevated wire cages and allowed 45-60 minutes to acclimate to the testing room. […] The lowest force that evoked a brisk withdrawal response to the stimuli determined the pain threshold. Tactile thresholds were determined on the day prior to surgery and rats with baseline thresholds <10 g force were excluded from studies. […]

The structures appear in SMILES notation.

Consider `NCC1Cc2cc(F)cc(-c3c(Cl)cccc3Cl)c2O1` (stereo not shown) [Compound 1, (7-(2,6-dichlorophenyl)-5-fluoro-2,3-dihydrobenzofuran-2-yl)methanamine], for which the “effectiveness in the tactile allodynia model” value is on record as “effectiveness”.
